The assay concerns the target GCN2 kinase (Homo sapiens, UniProt Q9P2K8). The experiment in a line: GCN2 enzyme inhibition assay (Transcreener ADP2 fluorescence polarization). Format: biochemical. To be noted: compounds of Formula II; 280 μM ATP, 4 nM GCN2 kinase. A digest of the protocol: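 Run at 25 °C in 25 mM Tris-HCl pH 7.5, 50 mM NaCl, 10 mM MgCl2, 1 mM DTT with 4 nM GCN2, 280 μM ATP and 200 μM (RS)7 peptide; compound (0–8 μM final) preincubated 10 min, reaction 1 h. ADP read by antibody/tracer FP; IC50 and Ki(app) from tight-binding fit.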

Molecules are shown by their SMILES. Some results are limits rather than exact numbers.

Sequence of GCN2 kinase (Q9P2K8 whole entry): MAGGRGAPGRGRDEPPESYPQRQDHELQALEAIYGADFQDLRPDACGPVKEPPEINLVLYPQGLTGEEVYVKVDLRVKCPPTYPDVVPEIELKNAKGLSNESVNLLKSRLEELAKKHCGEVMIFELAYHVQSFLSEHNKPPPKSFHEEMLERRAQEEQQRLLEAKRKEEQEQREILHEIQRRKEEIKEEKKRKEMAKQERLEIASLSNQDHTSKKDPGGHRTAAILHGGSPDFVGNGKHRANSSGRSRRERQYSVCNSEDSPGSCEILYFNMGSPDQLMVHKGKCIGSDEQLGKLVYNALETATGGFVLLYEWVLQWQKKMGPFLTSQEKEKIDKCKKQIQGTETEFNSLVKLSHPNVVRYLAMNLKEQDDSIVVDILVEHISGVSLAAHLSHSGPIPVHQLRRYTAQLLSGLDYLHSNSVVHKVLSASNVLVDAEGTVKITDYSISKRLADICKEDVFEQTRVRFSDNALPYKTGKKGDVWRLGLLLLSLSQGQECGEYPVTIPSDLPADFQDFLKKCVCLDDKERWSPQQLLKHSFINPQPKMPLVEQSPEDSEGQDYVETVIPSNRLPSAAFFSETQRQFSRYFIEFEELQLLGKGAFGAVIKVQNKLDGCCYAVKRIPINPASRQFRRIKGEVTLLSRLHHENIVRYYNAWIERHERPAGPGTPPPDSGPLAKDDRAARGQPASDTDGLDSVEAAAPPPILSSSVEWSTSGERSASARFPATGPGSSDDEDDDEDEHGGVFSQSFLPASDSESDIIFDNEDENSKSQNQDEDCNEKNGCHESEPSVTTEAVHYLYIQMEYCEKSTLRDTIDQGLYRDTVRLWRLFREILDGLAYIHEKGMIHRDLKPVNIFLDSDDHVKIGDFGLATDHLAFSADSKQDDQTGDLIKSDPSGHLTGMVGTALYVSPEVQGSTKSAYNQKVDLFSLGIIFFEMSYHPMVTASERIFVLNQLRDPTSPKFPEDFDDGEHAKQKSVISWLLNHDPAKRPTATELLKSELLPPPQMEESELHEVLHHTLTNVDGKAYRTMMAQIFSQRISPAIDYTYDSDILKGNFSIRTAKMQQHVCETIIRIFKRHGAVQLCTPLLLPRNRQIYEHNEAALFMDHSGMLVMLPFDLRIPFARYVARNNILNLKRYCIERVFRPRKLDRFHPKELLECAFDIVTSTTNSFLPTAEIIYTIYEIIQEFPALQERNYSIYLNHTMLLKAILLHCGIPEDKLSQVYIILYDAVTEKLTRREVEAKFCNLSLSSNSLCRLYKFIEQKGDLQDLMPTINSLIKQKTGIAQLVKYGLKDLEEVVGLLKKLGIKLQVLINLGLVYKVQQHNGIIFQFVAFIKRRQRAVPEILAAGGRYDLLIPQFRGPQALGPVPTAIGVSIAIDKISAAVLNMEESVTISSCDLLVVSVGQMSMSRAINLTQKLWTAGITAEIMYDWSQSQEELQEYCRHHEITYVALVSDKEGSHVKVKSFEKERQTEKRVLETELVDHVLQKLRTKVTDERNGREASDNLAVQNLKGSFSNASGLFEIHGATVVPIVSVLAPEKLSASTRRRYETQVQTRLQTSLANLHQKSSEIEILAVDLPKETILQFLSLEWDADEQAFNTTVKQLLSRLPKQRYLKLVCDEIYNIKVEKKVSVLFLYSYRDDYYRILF

A word on the Ki: it is a measure of affinity in units of concentration, obtained from inhibition or displacement. A low value points to tighter binding. In turn, `CC(C)(O)C1CCCN(c2cc(-c3cnc4ccc(C(F)F)nn34)ncn2)C1` (stereo not drawn) [II-608, 2-(1-(6-(6-(Difluoromethyl)imidazo[1,2-b]pyridazin-3-yl)pyrimidin-4-yl)piperidin-3-yl)propan-2-ol] displayed an inhibition constant (Ki) of 10 to 1000 nM.

Compound `CC(NS(C)(=O)=O)c1cccc(-c2cc(-c3cnc4ccc(C(F)F)nn34)ncn2)c1` (stereo not drawn) [II-609, N-[1-[3-[6-[6-(Difluoromethyl)imidazo[1,2-b]pyridazin-3-yl]pyrimidin-4-yl]phenyl]ethyl]methanesulfonamide] showed an inhibition constant (Ki) of less than 10 nM.

`Cc1cc(CN=S(C)(C)=O)cc(-c2cc(-c3cnc4ccc(C(F)F)nn34)ncn2)c1` [II-610, [3-[6-[6-(Difluoromethyl)imidazo[1,2-b]pyridazin-3-yl]pyrimidin-4-yl]-5-methyl-phenyl]methylimino-dimethyl-oxo-λ^6-sulfane] came in with a Ki of 10 to 1000 nM.

For `Cc1cc(C(=O)N=S(C)(C)=O)cc(-c2cc(-c3cnc4ccc(C(F)F)nn34)ncn2)c1` [II-611, 3-(6-(6-(difluoromethyl)imidazo[1,2-b]pyridazin-3-yl)pyrimidin-4-yl)-N-(dimethyl(oxo)-λ^6-sulfanylidene)-5-methylbenzamide], the inhibition constant Ki fell in the range of 10 to 1000 nM.

For `Cc1cc(CNS(C)(=O)=O)cc(-c2cc(-c3cnc4ccc(C(F)F)nn34)ncn2)c1` [II-612, N-(3-(6-(6-(Difluoromethyl)imidazo[1,2-b]pyridazin-3-yl)pyrimidin-4-yl)-5-methylbenzyl)methanesulfonamide], the Ki was less than 10 nM.

`CC1CN(c2cc(-c3cnc4ccc(C(F)F)nn34)ncn2)CC(CO)O1` (stereo not drawn) [II-615, (4-(6-(6-(Difluoromethyl)imidazo[1,2-b]pyridazin-3-yl)pyrimidin-4-yl)-6-methylmorpholin-2-yl)methanol] displayed an inhibition constant Ki of 10 to 1000 nM.

In the case of `CC1CN(c2cc(-c3cnc4ccc(C(F)F)nn34)ncn2)CC(CO)O1` (stereo not drawn) [II-616, (4-(6-(6-(Difluoromethyl)imidazo[1,2-b]pyridazin-3-yl)pyrimidin-4-yl)-6-methylmorpholin-2-yl)methanol], the Ki is 10 to 1000 nM.

For `CC1C(CNS(C)(=O)=O)C(C)(O)C(C)CN1c1cc(-c2cnc3ccc(C(F)F)nn23)ncn1` (stereo not drawn) [II-617, N-((1-(6-(6-(Difluoromethyl)imidazo[1,2-b]pyridazin-3-yl)pyrimidin-4-yl)-4-hydroxy-2,4,5-trimethylpiperidin-3-yl)methyl)methanesulfonamide], the inhibition constant (Ki) was in the range of 10 to 1000 nM.

Compound `CC(NS(C)(=O)=O)C1CCCN(c2cc(-c3cnc4ccc(C(F)F)nn34)ncn2)C1` (stereo not drawn) [II-619, N-(1-(1-(6-(6-(Difluoromethyl)imidazo[1,2-b]pyridazin-3-yl)pyrimidin-4-yl)piperidin-3-yl)ethyl)methanesulfonamide] showed a Ki of 10 to 1000 nM.

`CC(NS(C)(=O)=O)C1CCCN(c2cc(-c3cnc4ccc(C(F)F)nn34)ncn2)C1` (stereo not drawn) [II-620, N-(1-(1-(6-(6-(Difluoromethyl)imidazo[1,2-b]pyridazin-3-yl)pyrimidin-4-yl)piperidin-3-yl)ethyl)methanesulfonamide] returned a Ki of 10 to 1000 nM.

In turn, `CC(C)C(C)(O)C1CCCN(c2cc(-c3cnc4ccc(C(F)F)nn34)ncn2)C1` (stereo not drawn) [II-621, 2-(1-(6-(6-(Difluoromethyl)imidazo[1,2-b]pyridazin-3-yl)pyrimidin-4-yl)piperidin-3-yl)-3-methylbutan-2-ol] came in with a Ki of 10 to 1000 nM.

With `CC(C)C(C)(O)C1CCCN(c2cc(-c3cnc4ccc(C(F)F)nn34)ncn2)C1` (stereo not drawn) [II-622, 2-(1-(6-(6-(Difluoromethyl)imidazo[1,2-b]pyridazin-3-yl)pyrimidin-4-yl)piperidin-3-yl)-3-methylbutan-2-ol], the Ki fell in the range of 10 to 1000 nM.

`CC1CN(c2cc(-c3cnc4ccc(C(F)F)nn34)ncn2)CC(CO)C1(F)F` (stereo not drawn) [II-623, (1-(6-(6-(Difluoromethyl)imidazo[1,2-b]pyridazin-3-yl)pyrimidin-4-yl)-4,4-difluoro-5-methylpiperidin-3-yl)methanol] displayed a Ki of less than 10 nM.

In turn, `CC1CN(c2cc(-c3cnc4ccc(C(F)F)nn34)ncn2)CC(CO)C1(F)F` (stereo not drawn) [II-624, (1-(6-(6-(Difluoromethyl)imidazo[1,2-b]pyridazin-3-yl)pyrimidin-4-yl)-4,4-difluoro-5-methylpiperidin-3-yl)methanol] registered a Ki of 10 to 1000 nM.

In the case of `CCS(=O)(CC)=NC1CC(C)CN(c2cc(-c3cnc4ccc(C(F)F)nn34)ncn2)C1` (stereo not drawn) [II-627, ((1-(6-(6-(Difluoromethyl)imidazo[1,2-b]pyridazin-3-yl)pyrimidin-4-yl)-5-methylpiperidin-3-yl)imino)diethyl-λ^6-sulfanone], the Ki lay in the range of 10 to 1000 nM.

As for `OC1CCCC2C1NCCN2c1cc(-c2cnc3ccc(C(F)F)nn23)ncn1` (stereo not drawn) [II-628, 1-[6-[6-(Difluoromethyl)imidazo[1,2-b]pyridazin-3-yl]pyrimidin-4-yl]-3,4,4a,5,6,7,8,8a-octahydro-2H-quinoxalin-5-ol], the Ki lay within 10 to 1000 nM.

As to `CC1CCN(c2cc(-c3cnc4ccc(C(F)F)nn34)ncn2)CC1N=S(C)(C)=O` (stereo not drawn) [II-629, ((1-(6-(6-(Difluoromethyl)imidazo[1,2-b]pyridazin-3-yl)pyrimidin-4-yl)-4-methylpiperidin-3-yl)imino)dimethyl-λ^6-sulfanone], the Ki fell in the range of 10 to 1000 nM.

For `CC1CC(N=S(C)(=O)C2CC2)CN(c2cc(-c3cnc4ccc(C(F)F)nn34)ncn2)C1` (stereo not drawn) [II-634, Cyclopropyl((1-(6-(6-(difluoromethyl)imidazo[1,2-b]pyridazin-3-yl)pyrimidin-4-yl)-5-methylpiperidin-3-yl)imino)(methyl)-λ^6-sulfanone], the Ki was in the range of 10 to 1000 nM.

In turn, `CCS(C)(=O)=NC1CC(C)CN(c2cc(-c3cnc4ccc(C(F)F)nn34)ncn2)C1` (stereo not drawn) [II-635, ((1-(6-(6-(Difluoromethyl)imidazo[1,2-b]pyridazin-3-yl)pyrimidin-4-yl)-5-methylpiperidin-3-yl)imino)(ethyl)(methyl)-λ^6-sulfanone] showed a Ki of 10 to 1000 nM.

`CCC1CC(N=S(C)(C)=O)CN(c2cc(-c3cnc4ccc(C(F)F)nn34)ncn2)C1` (stereo not drawn) [II-648, ((1-(6-(6-(Difluoromethyl)imidazo[1,2-b]pyridazin-3-yl)pyrimidin-4-yl)-5-ethylpiperidin-3-yl)imino)dimethyl-λ^6-sulfanone] came in with a Ki of less than 10 nM.

Turning to `CC1CC(N=S2(=O)CCCC2)CN(c2cc(-c3cnc4ccc(C(F)F)nn34)ncn2)C1` (stereo not drawn) [II-649, 1-((1-(6-(6-(Difluoromethyl)imidazo[1,2-b]pyridazin-3-yl)pyrimidin-4-yl)-5-methylpiperidin-3-yl)imino)tetrahydro-1H-1-λ^6-thiophene 1-oxide], the Ki lay within 10 to 1000 nM.

`CS(C)(=O)=NC1CC(C(F)(F)F)CN(c2cc(-c3cnc4ccc(C(F)F)nn34)ncn2)C1` (stereo not drawn) [II-654, ((1-(6-(6-(Difluoromethyl)imidazo[1,2-b]pyridazin-3-yl)pyrimidin-4-yl)-5-(trifluoromethyl)piperidin-3-yl)imino)dimethyl-λ^6-sulfanone] showed a Ki of 10 to 1000 nM.

On to `CC1CC(N=S(C)(C)=O)CN(c2cc(-c3cnc4ccc(C(F)F)nn34)ccn2)C1` (stereo not drawn) [II-691, ((1-(4-(6-(Difluoromethyl)imidazo[1,2-b]pyridazin-3-yl)pyridin-2-yl)-5-methylpiperidin-3-yl)imino)dimethyl-λ^6-sulfanone], for which the Ki lay within 10 to 1000 nM.

Regarding `CS(C)(=O)=NC1CC(C(F)(F)F)CN(c2cc(-c3cnc4ccc(C(F)F)nn34)ncn2)C1` (stereo not drawn) [II-694, ((1-(6-(6-(Difluoromethyl)imidazo[1,2-b]pyridazin-3-yl)pyrimidin-4-yl)-5-(trifluoromethyl)piperidin-3-yl)imino)dimethyl-λ^6-sulfanone], the Ki was 10 to 1000 nM.

Turning to `CC1CCC(N=S(C)(C)=O)CN1c1cc(-c2cnc3ccc(C(F)F)nn23)ncn1` (stereo not drawn) [II-697, [1-[6-[6-(Difluoromethyl)imidazo[1,2-b]pyridazin-3-yl]pyrimidin-4-yl]-6-methyl-3-piperidyl]imino-dimethyl-λ^6-sulfanone], the Ki was greater than 1000 nM.

On to `CC1CC(N=S(C)(C)=O)CN(c2cc(-c3cnc4ccc(C#N)nn34)ncn2)C1` (stereo not drawn) [II-702, 3-(6-(3-((Dimethyl(oxo)-λ^6-sulfanylidene)amino)-5-methylpiperidin-1-yl)pyrimidin-4-yl)imidazo[1,2-b]pyridazine-6-carbonitrile], for which the Ki fell in the range of 10 to 1000 nM.

The compound `CC1CC(N=S(C)(C)=O)CN(c2cc(-c3cnc4ccc(C#N)nn34)ncn2)C1` (stereo not drawn) [II-703, 3-(6-(3-((Dimethyl(oxo)-λ^6-sulfanylidene)amino)-5-methylpiperidin-1-yl)pyrimidin-4-yl)imidazo[1,2-b]pyridazine-6-carbonitrile] displayed a Ki of less than 10 nM.

Turning to `FC(F)(F)c1ccc2ncc(-c3cc(-c4cnn(C5CCOCC5)c4)ncn3)n2n1` [II-708, 3-[6-(1-Tetrahydropyran-4-ylpyrazol-4-yl)pyrimidin-4-yl]-6-(trifluoromethyl)imidazo[1,2-b]pyridazine], the inhibition constant (Ki) was greater than 1000 nM.

On to `CC1CC(P(C)(C)=O)CN(c2cc(-c3cnc4ccc(C(F)(F)F)nn34)ncn2)C1` (stereo not drawn) [II-712, 3-[6-(3-Dimethylphosphoryl-5-methyl-1-piperidyl)pyrimidin-4-yl]-6-(trifluoromethyl)imidazo[1,2-b]pyridazine], for which the Ki is greater than 1000 nM.

The compound `CC1CC(P(C)(C)=O)CN(c2cc(-c3cnc4ccc(C(F)(F)F)nn34)ncn2)C1` (stereo not drawn) [II-713, 3-[6-(3-Dimethylphosphoryl-5-methyl-1-piperidyl)pyrimidin-4-yl]-6-(trifluoromethyl)imidazo[1,2-b]pyridazine] came in with a Ki of 10 to 1000 nM.

Compound `CC(=O)N1CCN(c2cc(-c3cnc4ccc(C(=O)O)nn34)ccn2)CC1` [II-734, 3-(2-(4-acetylpiperazin-1-yl)pyridin-4-yl)imidazo[1,2-b]pyridazine-6-carboxylic acid] yielded a Ki greater than 1000 nM.

For `Cc1noc([C@@H]2CN(c3cc(-c4cnc5ccc(C(F)(F)F)nn45)ccn3)C[C@@H](C)O2)n1` [II-742], the inhibition constant (Ki) lay in the range of 10 to 1000 nM.

As for `C[C@H]1CN(c2cc(-c3cnc4ccc(C(F)(F)F)nn34)ccn2)C[C@@H](c2nc(C3CC3)no2)O1` [II-743], the Ki was in the range of 10 to 1000 nM.
